Reference: patent US20090176837A1, “COMPOUNDS WITH ACTIVITY AT RETINOIC ACID RECEPTORS” (SONY CORPORATION, priority 2006, published 2009)

Key:
[1] = tested on: NTERA-2 Cells; test: Induction of neuronal differentiation in NTERA-2 cells; assay type: cell-based
[2] = molecular target: T1, RARβ2 (Homo sapiens, UniProt P10826); test: Receptor Selection and Amplification Technology (R-SAT) functional receptor assay; assay type: cell-based; conditions: for pEC50: Table 1; for % Eff.: Table 1, efficacy relative to the maximal response of the reference ligand Am-580; for Emax: Table 1, efficacy relative to the maximal response of the reference ligand Am-580, read-out: % Eff.; for EC50: Table 1, read-out: pEC50 (converted)
T1 construct: expressed in transfected cells
T1 sequence (P10826 1-448 isoform P10826-2): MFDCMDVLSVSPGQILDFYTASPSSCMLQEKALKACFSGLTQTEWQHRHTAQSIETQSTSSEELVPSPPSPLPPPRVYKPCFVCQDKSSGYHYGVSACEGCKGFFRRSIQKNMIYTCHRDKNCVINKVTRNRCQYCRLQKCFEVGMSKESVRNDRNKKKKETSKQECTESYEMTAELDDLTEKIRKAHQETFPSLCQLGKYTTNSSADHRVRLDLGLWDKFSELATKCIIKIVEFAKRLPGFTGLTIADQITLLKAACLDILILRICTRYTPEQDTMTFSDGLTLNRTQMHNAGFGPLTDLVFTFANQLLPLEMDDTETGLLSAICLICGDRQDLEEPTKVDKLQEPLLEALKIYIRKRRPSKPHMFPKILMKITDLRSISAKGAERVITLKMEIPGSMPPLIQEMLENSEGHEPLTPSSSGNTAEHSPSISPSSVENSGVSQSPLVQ
Excerpt: The functional receptor assay, Receptor Selection and Amplification Technology (R-SAT), was used to investigate the pharmacological properties of known and novel RARβ agonists and antagonists.
Efficacy is relative to the maximal response of the reference ligand, Am-580.

Row | Compound | Emax [2] [%] | EC50 [2] [nM] | neuronal differentiation [1] | pEC50 [2] | % Eff. [2] [%]
1 | CCCCCCCCc1ccc(-c2ccc(C(=O)O)cc2)cc1 [Compound 6] | – | – | induce neuronal differentiation | 7.73 | 104
2 | CCCCCCCCOc1ccc(-c2ccc(C(=O)NCCC#N)cc2)cc1 [Compound 51, 4′-Octyloxy-biphenyl-4-carboxylic acid (2-cyano-ethyl)-amide] | 59 | 309 | – | – | –
3 | CCCCCCCCc1ccc(-c2ccc(C(=O)O)cc2)cc1 [Compound 53, 4′-Octyl[1,1′-biphenyl]-4-carboxylic acid] | – | 513 | – | – | 99
4 | CCCCCCCCOc1ccc(-c2ccc(C(=O)NCCc3ccccn3)cc2)cc1 [Compound 54, 4′-Octyloxy-biphenyl-4-carboxylic acid (2-pyridin-2-yl-ethyl)-amide] | 39 | 661 | – | – | –
5 | CCCCCCCCc1ccc(-c2ccc(C(=O)O)c(C)c2)cc1 [Compound 55, 3-Methyl-4′-octyl[1,1′-biphenyl]-4-carboxylic acid] | 84 | 676 | – | – | –
6 | CCCCCCCCc1ccc(-c2ccc(C(=O)OCCc3ccccn3)cc2)cc1 [Compound 68] | – | – | induce neuronal differentiation | – | –
7 | Imidazol-1-yl-(4-octyl-biphenyl-4-yl)-methanone [Compound 8] | – | – | – | 7.66 | 79

More lines, main results first:

Row | Emax [2] [%] | EC50 [2] [nM] | Compound | neuronal differentiation [1] | pEC50 [2] | % Eff. [2] [%]
8 | 105 | 676 | Cc1sc(-c2ccc(C(=O)O)cc2)nc1OCC(=O)NC1CCCCCC1 [Compound 56, 4-(4-Cycloheptycarbamoylmethoxy-5-methyl-thiazol-2-yl)-benzoic acid] | – | – | –
9 | 77 | 676 | Cc1sc(-c2ccc(C(=O)O)cc2)nc1OCC(=O)NC(C)CCC(C)C (stereo not drawn) [Compound 57, 4-[4-[2-[(1,4-Dimethylpentyl)amino]-2-oxoethoxy]-5-methyl-2-thiazolyl]-benzoic acid] | – | – | –
10 | 66 | 708 | Cc1sc(-c2ccc(C(=O)O)cc2)nc1OCC(=O)NC1CCC(C)CC1 (stereo not drawn) [Compound 58, 4-[5-Methyl-4-[2-[(4-methylcyclohexyl)amino]-2-oxoethoxy]-2-thiazolyl]-benzoic acid] | – | – | –
11 | 35 | 776 | CCCCCCCc1ccc(-c2ccc(C(=O)NCCc3ccccn3)cc2)cc1 [Compound 59, 4′-Heptyl-biphenyl-4-carboxylic acid (2-pyridin-2-yl-ethyl)-amide] | – | – | –
12 | 51 | 832 | CCCCCCCCc1ccc(-c2ccc(C(=O)NS(C)(=O)=O)cc2)cc1 [Compound 60, N-(4′-Octyl-biphenyl-4-carbonyl)-methanesulfonamide] | – | – | –
13 | 39 | 832 | Cc1sc(-c2ccc(C(=O)O)cc2)nc1OCC(=O)NC1CCCC1 [Compound 61, 4-(4-Cyclopentylcarbamoylmethoxy-5-methyl-thiazol-2-yl)-benzoic acid] | – | – | –
14 | 37 | 832 | CCCCNC(=O)COc1nc(-c2ccc(C(=O)O)cc2)sc1C [Compound 62, 4-(4-Butylcarbamoylmethoxy-5-methyl-thiazol-2-yl)-benzoic acid] | – | – | –
15 | 36 | 891 | CCCCCCc1ccc(-c2ccc(C(=O)Nc3ccc(C)cn3)cc2)cc1 [Compound 63, 4′-Hexyl-biphenyl-4-carboxylic acid (5-methyl-pyridin-2-yl)-amide] | – | – | –
